US20110237493A1, “DIPEPTIDE LINKED MEDICINAL AGENTS” (priority 2008, published 2011)
Like-named read-outs stand apart in the source and are kept apart here. Where a SMILES comes first, the peptide text is derived from it. [ ]: non-standard residue; d: D form. NHexGly = CCCCCCNCC(=O)O; Sar = CNCC(=O)O

Columns and labels:
[1] = Rate of model dipeptide cleavage in PBS (HPLC / LC-MS); conditions: for Relative peak area (%) HPLC peak a (molecular weight 702) / Relative peak area (%) HPLC peak b (molecular weight 902): PBS, 37° C.; for half-life at 1 mg/ml: buffer
Description: The solution was incubated at 37° C. […] The dipeptide cleavage was quenched by lowering the pH with an equal volume of 0.1% TFA. The rate of cleavage was qualitatively monitored by LC-MS and quantitatively studied by HPLC. The retention time and relative peak area for the prodrug and the parent model peptide were quantified using Peak Simple Chromatography software.
The flow rate was 1 ml/min.
The concentrations of the prodrugs and the model parent peptide were determined by their respective peak areas, ‘a’ and ‘b’ for each of the different collection times (Table 1). […] The slope of this plot provides the rate constant ‘k’.

[2] = plasma

C[C@@H](O)[C@H](NC(=O)CNC(=O)[C@H](CCCNC(=N)N)NC(=O)[C@H](CO)NC(=O)[C@H](Cc1c[nH]cn1)NC(=O)CN(C)C(=O)[C@@H](N)CCCCN)C(=O)N[C@@H](Cc1ccccc1)C(N)=O [peptide A, Lys-Sar-HSRGTF-NH2]
Relative peak area (%) HPLC peak a (molecular weight 702) ([1]; 5 h): 26.5% | Relative peak area (%) HPLC peak b (molecular weight 902) ([1]; 5 h): 73.5% | Relative peak area (%) HPLC peak a (molecular weight 702) ([1]; 8 h): 28.9% | Relative peak area (%) HPLC peak b (molecular weight 902) ([1]; 8 h): 71.1% | Relative peak area (%) HPLC peak a (molecular weight 702) ([1]; 24 h): 28.8% | Relative peak area (%) HPLC peak b (molecular weight 902) ([1]; 24 h): 71.2% | Relative peak area (%) HPLC peak a (molecular weight 702) ([1]; 31 h): 77.7% | Relative peak area (%) HPLC peak b (molecular weight 902) ([1]; 31 h): 22.3% | Relative peak area (%) HPLC peak a (molecular weight 702) ([1]; 47 h): 90.0% | Relative peak area (%) HPLC peak b (molecular weight 902) ([1]; 47 h): 10.0% | half-life at 1 mg/ml [1]: 14 h

C[C@H](O)[C@@H](NC(=O)CNC(=O)[C@@H](CCCNC(=N)N)NC(=O)[C@H](NC(=O)[C@@H](Cc1c[nH]cn1)NC(=O)CN(C)C(=O)[C@@H](N)CCCCN)[C@H](C)O)C(=O)N[C@H](Cc1ccccc1)C(N)=O [peptide B, Lys-Sar-dHdTdRGdTdF-NH2] (H-K[Sar][dH][dT][dR]G[dT][dF]-NH2)
Relative peak area (%) HPLC peak a (molecular weight 702) ([2]; 5 h): 17.0% | Relative peak area (%) HPLC peak b (molecular weight 902) ([2]; 5 h): 83.0% | Relative peak area (%) HPLC peak a (molecular weight 702) ([2]; 11 h): 29.2% | Relative peak area (%) HPLC peak b (molecular weight 902) ([2]; 11 h): 70.8% | Relative peak area (%) HPLC peak a (molecular weight 702) ([2]; 24 h): 60.2% | Relative peak area (%) HPLC peak b (molecular weight 902) ([2]; 24 h): 39.8% | Relative peak area (%) HPLC peak a (molecular weight 702) ([2]; 32 h): 54.0% | Relative peak area (%) HPLC peak b (molecular weight 902) ([2]; 32 h): 46.0% | Relative peak area (%) HPLC peak a (molecular weight 702) ([2]; 48 h): 27.6% | Relative peak area (%) HPLC peak b (molecular weight 902) ([2]; 48 h): 72.4%

C[C@@H](O)[C@H](NC(=O)CNC(=O)[C@H](CCCNC(=N)N)NC(=O)[C@H](CO)NC(=O)[C@H](Cc1c[nH]cn1)NC(=O)CN(C)C(=O)[C@@H]1CCCN1)C(=O)N[C@@H](Cc1ccccc1)C(N)=O [Compound 36] (H-P[Sar]HSRGTF-NH2)
half-life at 1 mg/ml [1]: 181 h

C[C@@H](O)[C@H](NC(=O)CNC(=O)[C@H](CCCNC(=N)N)NC(=O)[C@H](CO)NC(=O)[C@H](Cc1c[nH]cn1)NC(=O)CN(C)C(=O)CO)C(=O)N[C@@H](Cc1ccccc1)C(N)=O [Compound 28]
half-life at 1 mg/ml [1]: 149 h

C[C@@H](O)[C@H](NC(=O)CNC(=O)[C@H](CCCNC(=N)N)NC(=O)[C@H](CO)NC(=O)[C@H](Cc1c[nH]cn1)NC(=O)CN(C)C(=O)C(C)(C)N)C(=O)N[C@@H](Cc1ccccc1)C(N)=O [Compound 24]
half-life at 1 mg/ml [1]: 0.817 h

C[C@@H](O)[C@H](NC(=O)CNC(=O)[C@H](CCCNC(=N)N)NC(=O)[C@H](CO)NC(=O)[C@H](Cc1c[nH]cn1)NC(=O)CN(C)C(=O)[C@@H](N)CO)C(=O)N[C@@H](Cc1ccccc1)C(N)=O [Compound 35] (H-S[Sar]HSRGTF-NH2)
half-life at 1 mg/ml [1]: 17 h

CCCCCCN(CC(=O)N[C@@H](Cc1c[nH]cn1)C(=O)N[C@@H](CO)C(=O)N[C@@H](CCCNC(=N)N)C(=O)NCC(=O)N[C@H](C(=O)N[C@@H](Cc1ccccc1)C(N)=O)[C@@H](C)O)C(=O)C(C)(C)N [Compound 25]
half-life at 1 mg/ml [1]: 0.167 h

C[C@@H](O)[C@H](NC(=O)CNC(=O)[C@H](CCCNC(=N)N)NC(=O)[C@H](CO)NC(=O)[C@H](Cc1c[nH]cn1)NC(=O)CN(C)C(=O)[C@@H](N)CCCCN)C(=O)N[C@@H](Cc1ccccc1)C(N)=O [Compound 33]
t1/2 of cleavage of dipeptide A-B ([1]; in PBS, A-B linked to position 1 (X) of model hexapeptide XSRGTF-NH2): 14 h

C[C@@H](O)[C@H](NC(=O)CNC(=O)[C@H](CCCNC(=N)N)NC(=O)[C@H](CO)NC(=O)[C@H](Cc1c[nH]cn1)NC(=O)CN(C)C(=O)CN)C(=O)N[C@@H](Cc1ccccc1)C(N)=O [Compound 27] (H-G[Sar]HSRGTF-NH2)
half-life at 1 mg/ml [1]: 104 h

C[C@@H](O)[C@H](NC(=O)CNC(=O)[C@H](CCCNC(=N)N)NC(=O)[C@H](CO)NC(=O)[C@H](Cc1c[nH]cn1)NC(=O)CN(C)C(=O)[C@@H](N)Cc1ccccc1)C(=O)N[C@@H](Cc1ccccc1)C(N)=O [Compound 34] (H-F[Sar]HSRGTF-NH2)
half-life at 1 mg/ml [1]: 29 h

C[C@@H](O)[C@H](NC(=O)CNC(=O)[C@H](CCCNC(=N)N)NC(=O)[C@H](CO)NC(=O)[C@H](Cc1c[nH]cn1)NC(=O)CN(C)C(=O)[C@H](N)CCCCN)C(=O)N[C@@H](Cc1ccccc1)C(N)=O [Compound 30]
half-life at 1 mg/ml [1]: 27 h

CCCCCCN(CC(=O)N[C@@H](Cc1c[nH]cn1)C(=O)N[C@@H](CO)C(=O)N[C@@H](CCCNC(=N)N)C(=O)NCC(=O)N[C@H](C(=O)N[C@@H](Cc1ccccc1)C(N)=O)[C@@H](C)O)C(=O)CN [Compound 29] (H-G[NHexGly]HSRGTF-NH2)
half-life at 1 mg/ml [1]: 70 h
